The term LD50 denotes the dose expected to kill half of the subjects tested.

Where “and” joins values, the source holds several entries; their conditions need not be identical. Identical values can stand only once.

Data set [1] has as its system Nephrotoxin-Type Nephritis. Description: Therapeutic effect on nephrotoxin-type nephritis (proteinuria). The data set is classed as in vivo, male Wistar rats. The note with it: 3 mg per rat i.p. once daily, 7 days; for amount of proteinurea, Average: average of 3 replications; for amount of proteinurea: individual replication. An excerpt: Rat nephrotoxin ("NT" for brevity) was obtained as described below. Rat kidney cortex was homogenized with an equal quantity of physiological saline. The homogenized mixture was mixed with Freund's complete adjuvant (a product of Difco Company) in a volume ratio of 1:1. Two milliliters of the resulting mixture was intramuscularly injected into a rabbit (body weight 3,100 g) to immunize the rabbit. A month and a half later, blood was taken from the heart of the rabbit and serum was obtained. The resulting serum was inactivated at 56° C. for 30 minutes, then salted out with a 40% saturated aqueous solution of ammonium sulfate, and fractionated. The γ-globulin (IgG) fraction was collected to obtain NT.
The evaluation was carried out using male Wistar rats with a body weight of 150 to 160 g with three replications for each test compound. The test compound was intraperitoneally administered once every 24 hours for seven days. One hour after the administration of the test compound on the third day, the NT was applied. The NT was intravenously injected in an amount of 1 ml at a tail vein of each rat. Chlorophyllin (CP) was used as a comparison compound, and physiological saline solution was used as a control.
The proteinuria level (total amount excreted into the urine over a 24 hour period) was measured using turbidometry employing bovine serum albumin as a control by means of sulfosalicylic acid.

Data set [2] concerns complement serum (guinea pig complement). As to the kind of experiment: Anti-complement activity: 50% inhibition of hemolysis of sensitized erythrocytes. The data set is classed as cell-based. The settings on record: Cavia porcellus, Erythrocyte, 1 h, 37° C., 60 minutes, guinea pig complement diluted 150 times, OD413, read-out: Anti-Complement Activity Value (50% hemolysis inhibitory activity value). As for the experimental part: The anti-complement activity was measured and confirmed by the testing method described in Meneki Kagaku (Immuno-Chemistry), Yuichi Yamamura et al., Ed. pages 830-834, Asakura Shoten, Tokyo, Japan (1973). Specifically,a test tube was charged with 0.5 ml of an aqueous dispersion of each of the test compounds, 0.5 ml of sensitized erythrocytes (EA) containing 1×10^8 cells/ml, 1 ml of a 5-fold diluted solution of a Veronal buffer solution containing gelatin, Ca^++ and Mg^++ (GVB^++), and 0.5 ml of complement serum (guinea pig complement) diluted to 150 times with the GVB^++. The mixture was maintained hot at 37° C. for 60 minutes. Then, 5 ml of an ice-cold physiological saline solution was added thereto, and the mixture was centrifuged. […] The 50% hemolysis inhibitory activity value (γ/ml) measured by the above method is shown in Table 2 below for each test compound.

Data set [3] is described as follows: Acute toxicity on intravenous administration to mice. The settings on record: mouse, in vivo.
In another data set the test system is Heymann-type Nephritis. As to the kind of experiment: Therapeutic effects on Heymann-type nephritis (proteinuria). The data set is classed as in vivo, male Wistar rats. The note with it: for amount of proteinurea, Average: average of 3 replications; for amount of proteinurea: individual replication. As for the experimental part: Male Wistar rats with a body weight of 180 to 200 g were used in the test. Rat kidney cortex was extracted, and homogenized with an equal quantity by volume of a physiological saline solution. The homogenate was centrifuged at 1500 G for 1 hour. The supernatant liquid was purified in accordance with the method of T. S. […] The resulting mixture was injected intraperitoneally into isologous rats in an amount of 0.5 ml per rat. […] (This period was about 6 to 8 weeks.) […] CP was used as a comparison compound, and physiological saline solution was used as a control. Three replications were conducted for each test compound.

[4] abbreviates: Before Administration, group of 3 mg per rat i.p.
Where [5] appears, read: Day 1, 3 mg per rat i.p. once a day, 7 days.
The mark [6] stands for this setting: Day 4, 3 mg per rat i.p. once a day, 7 days.
[7] abbreviates: Day 7, 3 mg per rat i.p. once a day, 7 days.
[8] abbreviates: Day 14, 3 mg per rat i.p. once a day, 7 days.
Setting [9] is: Day 21, 3 mg per rat i.p. once a day, 7 days.

As to `CC1CCC2C(C)(C)C(O)C(O)CC2(C)C12Cc1c(O)cc(C=O)c(C=O)c1O2` (stereo not shown) [(1), 6,7-Dihydroxy-2,5,5,8a-tetramethyl-1,2,3,4,4a,5,6,7,8,8a-decahydronaphthalene-1-spiro-2'-(6',7'-diformyl-4'-hydroxy-2',3'-dihydrobenzofuran)], the “amount of proteinurea, Average” value is listed as 2.8 mg/day in data set [1] (Day 1); 1.6 mg/day in data set [1] (Day 4); 1.2 mg/day in data set [1] (Day 7); 8 mg/day in data set [1] (Day 10); 116 mg/day in the data set on Heymann-type Nephritis (setting [4]); 111 mg/day in the data set on Heymann-type Nephritis (setting [5]). The “amount of proteinurea, Average” value in the data set with Heymann-type Nephritis (setting [6]) is 61 mg/day; in the data set on Heymann-type Nephritis (setting [7]) it was 26 mg/day; in the data set with Heymann-type Nephritis (setting [8]), 11 mg/day; in the data set with Heymann-type Nephritis (setting [9]), 10 mg/day. For the same molecule, the amount of proteinurea is 2.5 mg/day and 4.3 mg/day and 1.7 mg/day in data set [1] (Day 1); 1.5 mg/day and 2.1 mg/day and 1.1 mg/day in data set [1] (Day 4); 0.8 mg/day and 1.8 mg/day and 0.9 mg/day in data set [1] (Day 7); 8 mg/day and 10 mg/day and 7 mg/day in data set [1] (Day 10); 95 mg/day and 132 mg/day and 121 mg/day in the data set on Heymann-type Nephritis (setting [4]); 90 mg/day and 125 mg/day and 120 mg/day in the data set on Heymann-type Nephritis (setting [5]). Also, the amount of proteinurea is 47 mg/day and 65 mg/day and 70 mg/day in the data set with Heymann-type Nephritis (setting [6]); 17 mg/day and 35 mg/day and 27 mg/day in the data set with Heymann-type Nephritis (setting [7]); 9 mg/day and 15 mg/day and 10 mg/day in the data set with Heymann-type Nephritis (setting [8]); 10 mg/day and 12 mg/day and 9 mg/day in the data set with Heymann-type Nephritis (setting [9]). Also, the IC50 in data set [2] came to 10 µg/mL. This molecule came in with an LD50 in data set [3] of 40 mg/kg.

Source of the values: US4229466A, “Sesquiterpene derivatives having anti-complementary activity” (Otsuka Pharmaceutical Co., Ltd., priority 1977, dated 1980).
